We go through nine compounds from patent US10004701B2, “Methods and compositions for treating infection” (UNIVERSITY OF ROCHESTER, priority 2012, dated 2018).

Common to all, as to test: AK assay 384-well format, Prestwick library screening
One assay relates to K. pneumoniae. Format: cell-based, Klebsiella pneumoniae. The note with it: 50 μM final drug concentration; for fold induction at 50 µM: Klebsiella pneumoniae, 3 h.
Assay [1] has as its system S. aureus strain USA300-0114. Format: cell-based, Staphylococcus aureus. The note with it: 50 μM final drug concentration; for fold induction at 50 µM: Staphylococcus aureus, USA300, 3 h.
Another assay concerns P. aeruginosa. The format is cell-based, Pseudomonas aeruginosa. The note with it: 50 μM final drug concentration; for fold induction at 50 µM: Pseudomonas aeruginosa, 3 h.
The subject of assay [2] is A. baumannii strain 98-37-09. Format: cell-based, Acinetobacter baumannii. The note with it: 50 μM final drug concentration; for fold induction at 50 µM: Acinetobacter baumannii, 983709, 3 h.
A further assay concerns E. faecium. The format is cell-based, Enterococcus faecium. The note with it: 50 μM final drug concentration; for fold induction at 50 µM: Enterococcus faecium, 3 h.
The next assay deals with E. cloacae. Format: cell-based, Enterobacter cloacae. The note with it: 50 μM final drug concentration; for fold induction at 50 µM: Enterobacter cloacae, 3 h.
In a further assay the test system is E. coli. Format: cell-based, Escherichia coli. The note with it: 50 μM final drug concentration; for fold induction at 50 µM: Escherichia coli, 3 h.
Where [3] appears, read: planktonic K. pneumoniae, […], read-out: AK-based Prestwick Library Screening Results, K. pneumoniae (increase in extracellular AK activity).
Setting [4] is: planktonic S. aureus, […], read-out: AK-based Prestwick Library Screening Results, S. aureus (increase in extracellular AK activity).
[5] abbreviates: planktonic P. aeruginosa, […], read-out: AK-based Prestwick Library Screening Results, P. aeruginosa (increase in extracellular AK activity).
Setting [6] is: planktonic A. baumannii, […], read-out: AK-based Prestwick Library Screening Results, A. baumannii (increase in extracellular AK activity).
The mark [7] stands for this setting: planktonic E. faecium, […], read-out: AK-based Prestwick Library Screening Results, E. faecium (increase in extracellular AK activity).
Setting [8] is: planktonic E. cloacae, […], read-out: AK-based Prestwick Library Screening Results, E. cloacae (increase in extracellular AK activity).
[9] abbreviates: planktonic E. coli, […], read-out: AK-based Prestwick Library Screening Results, E. coli (increase in extracellular AK activity).
[10] abbreviates: cutoff for positive-scoring molecules 3-fold increase, read-out: AK-based Prestwick Library Screening Results, K. pneumoniae (fold increase in extracellular AK activity).
The mark [11] stands for this setting: cutoff for positive-scoring molecules 3-fold increase, read-out: AK-based Prestwick Library Screening Results, S. aureus (fold increase in extracellular AK activity).
Setting [12] is: cutoff for positive-scoring molecules 3-fold increase, read-out: AK-based Prestwick Library Screening Results, P. aeruginosa (fold increase in extracellular AK activity).
Where [13] appears, read: cutoff for positive-scoring molecules 3-fold increase, read-out: AK-based Prestwick Library Screening Results, A. baumannii (fold increase in extracellular AK activity).
Setting [14] is: cutoff for positive-scoring molecules 3-fold increase, read-out: AK-based Prestwick Library Screening Results, E. faecium (fold increase in extracellular AK activity).
The mark [15] stands for this setting: cutoff for positive-scoring molecules 3-fold increase, read-out: AK-based Prestwick Library Screening Results, E. cloacae (fold increase in extracellular AK activity).
[16] abbreviates: cutoff for positive-scoring molecules 3-fold increase, read-out: AK-based Prestwick Library Screening Results, E. coli (fold increase in extracellular AK activity).

Counter-ions that a name gives are not always drawn. Like-named read-outs stand apart in the source and are kept apart here.

Turning to `[H]/N=C(/N)N[C@H]1[C@H](O)[C@@H](O)[C@H](O[C@@H]2O[C@@H](C)[C@](O)(C=O)[C@H]2O[C@@H]2O[C@@H](CO)[C@H](O)[C@@H](O)[C@@H]2NC)[C@@H](N/C(N)=N\[H])[C@@H]1O` [Streptomycin sulfate], the fold induction at 50 µM in the assay on K. pneumoniae (planktonic K. pneumoniae, 384-well, cutoff for positive-scoring molecules 3-fold increase, read-out: AK-based Prestwick Library Screening Results: K. pneumoniae (increase in extracellular AK activity)) came to 0.3; in assay [1] (planktonic S. aureus, 384-well, cutoff for positive-scoring molecules 3-fold increase, read-out: AK-based Prestwick Library Screening Results: S. aureus (increase in extracellular AK activity)) it was 0.4; with P. aeruginosa (planktonic P. aeruginosa, 384-well, cutoff for positive-scoring molecules 3-fold increase, read-out: AK-based Prestwick Library Screening Results: P. aeruginosa (increase in extracellular AK activity)), 0.4; in assay [2] (planktonic A. baumannii, 384-well, cutoff for positive-scoring molecules 3-fold increase, read-out: AK-based Prestwick Library Screening Results: A. baumannii (increase in extracellular AK activity)) it was 0.4; in the assay with E. faecium (planktonic E. faecium, 384-well, cutoff for positive-scoring molecules 3-fold increase, read-out: AK-based Prestwick Library Screening Results: E. faecium (increase in extracellular AK activity)), 0.9; with E. cloacae (planktonic E. cloacae, 384-well, cutoff for positive-scoring molecules 3-fold increase, read-out: AK-based Prestwick Library Screening Results: E. cloacae (increase in extracellular AK activity)), 0.3. In the assay on E. coli (planktonic E. coli, 384-well, cutoff for positive-scoring molecules 3-fold increase, read-out: AK-based Prestwick Library Screening Results: E. coli (increase in extracellular AK activity)), the fold induction at 50 µM came out at 0.5.

For `C=C1CC[C@H](O)C/C1=C/C=C1\CCC[C@]2(C)[C@@H]([C@H](C)CCCC(C)C)CC[C@@H]12` [Cholecalciferol], the fold induction at 50 µM in the assay with K. pneumoniae (setting [3]) was 0.7; in assay [1] (setting [4]), 0.7; with P. aeruginosa (setting [5]) it was 0.9; in assay [2] (setting [6]) it was 0.8; in the assay with E. faecium (setting [7]) it was 0.9; in the assay on E. cloacae (setting [8]), 1. Moreover, the fold induction at 50 µM with E. coli (setting [9]) is 1.

Turning to `CCC(=O)O[C@]1(C(=O)CCl)[C@@H](C)C[C@H]2[C@@H]3CCC4=CC(=O)C=C[C@]4(C)[C@@]3(F)[C@@H](O)C[C@@]21C` [Clobetasol propionate], the fold induction at 50 µM was determined as 1 with K. pneumoniae (setting [10]); 0.9 in assay [1] (setting [11]); 1.1 with P. aeruginosa (setting [12]); 1.3 in assay [2] (setting [13]); 1 in the assay on E. faecium (setting [14]); 1.3 with E. cloacae (setting [15]). The fold induction at 50 µM in the assay on E. coli (setting [16]) is 1.2.

In the case of `CC(C)NCC(O)COc1ccc(CCOCC2CC2)cc1` (stereo not drawn) [Betaxolol hydrochloride], the fold induction at 50 µM was 1 in the assay with K. pneumoniae (planktonic, cutoff for positive 3-fold increase, read-out: AK-based Prestwick Library Screening Results, K. pneumoniae (fold increase in extracellular AK activity)); 0.9 in assay [1] (planktonic, cutoff for positive 3-fold increase, read-out: AK-based Prestwick Library Screening Results, S. aureus (fold increase in extracellular AK activity)); 1.1 in the assay on P. aeruginosa (planktonic, cutoff for positive 3-fold increase, read-out: AK-based Prestwick Library Screening Results, P. aeruginosa (fold increase in extracellular AK activity)); 1.4 in assay [2] (planktonic, cutoff for positive 3-fold increase, read-out: AK-based Prestwick Library Screening Results, A. baumannii (fold increase in extracellular AK activity)); 0.9 in the assay with E. faecium (planktonic, cutoff for positive 3-fold increase, read-out: AK-based Prestwick Library Screening Results, E. faecium (fold increase in extracellular AK activity)); 1.6 with E. cloacae (planktonic, cutoff for positive 3-fold increase, read-out: AK-based Prestwick Library Screening Results, E. cloacae (fold increase in extracellular AK activity)). The fold induction at 50 µM in the assay on E. coli (planktonic, cutoff for positive 3-fold increase, read-out: AK-based Prestwick Library Screening Results, E. coli (fold increase in extracellular AK activity)) is 1.2.

For the compound `CO/N=C(\C(=O)N[C@@H]1C(=O)N2C(C(=O)O)=C(COC(N)=O)CS[C@H]12)c1ccco1` [Cefuroxime sodium salt], the fold induction at 50 µM with K. pneumoniae (setting [10]) was 2.4; in assay [1] (setting [11]), 3.4; with P. aeruginosa (setting [12]), 1.6; in assay [2] (setting [13]), 1.4; with E. faecium (setting [14]), 1; with E. cloacae (setting [15]), 1.6. Besides, the fold induction at 50 µM in the assay with E. coli (setting [16]) was determined as 12.1.

`CCCC(C(=O)OCCN(CC)CC)(c1ccccc1)c1ccccc1` [Proadifen hydrochloride]: the fold induction at 50 µM with K. pneumoniae (setting [10]) was 0.8; in assay [1] (setting [11]), 0.8; in the assay with P. aeruginosa (setting [12]), 1.1; in assay [2] (setting [13]), 1.1; with E. faecium (setting [14]), 1.1; with E. cloacae (setting [15]) it was 1.7. The fold induction at 50 µM in the assay on E. coli (setting [16]) came to 1.2.

`COc1cc2nc(N3CCN(C(=O)C4CCCO4)CC3)nc(N)c2cc1OC` (stereo not drawn) [Terazosin hydrochloride]: the fold induction at 50 µM in the assay with K. pneumoniae (planktonic, cutoff for positive-scoring molecules 3-fold increase, read-out: AK-based Prestwick Library Screening Results, K. pneumoniae (fold increase in extracellular AK activity)) amounted to 0.7; in assay [1] (planktonic, cutoff for positive-scoring molecules 3-fold increase, read-out: AK-based Prestwick Library Screening Results, S. aureus (fold increase in extracellular AK activity)) it was 0.8; in the assay with P. aeruginosa (planktonic, cutoff for positive-scoring molecules 3-fold increase, read-out: AK-based Prestwick Library Screening Results, P. aeruginosa (fold increase in extracellular AK activity)), 0.6; in assay [2] (planktonic, cutoff for positive-scoring molecules 3-fold increase, read-out: AK-based Prestwick Library Screening Results, A. baumannii (fold increase in extracellular AK activity)), 0.7; with E. faecium (planktonic, cutoff for positive-scoring molecules 3-fold increase, read-out: AK-based Prestwick Library Screening Results, E. faecium (fold increase in extracellular AK activity)) it was 0.8; in the assay with E. cloacae (planktonic, cutoff for positive-scoring molecules 3-fold increase, read-out: AK-based Prestwick Library Screening Results, E. cloacae (fold increase in extracellular AK activity)) it was 1.2. In the assay with E. coli (planktonic, cutoff for positive-scoring molecules 3-fold increase, read-out: AK-based Prestwick Library Screening Results, E. coli (fold increase in extracellular AK activity)), the fold induction at 50 µM was 0.8.

Turning to `CN1CC[C@]23c4ccccc4N[C@H]1[C@]21CCN(C)[C@H]3Nc2ccccc21` [Calycanthine], in the assay with K. pneumoniae (planktonic K. pneumoniae, […]), the “AK-based Prestwick Library Screening Results, K. pneumoniae (increase in extracellular AK activity)” value stood at 0.7. In addition, the “AK-based Prestwick Library Screening Results, S. aureus (increase in extracellular AK activity)” value in assay [1] (planktonic S. aureus, […]) worked out at 0.6. The “AK-based Prestwick Library Screening Results, P. aeruginosa (increase in extracellular AK activity)” value in the assay with P. aeruginosa (planktonic P. aeruginosa, […]) worked out at 0.8. Besides, the “AK-based Prestwick Library Screening Results, A. baumannii (increase in extracellular AK activity)” value in assay [2] (planktonic A. baumannii, […]) worked out at 0.8. Moreover, in the assay on E. faecium (planktonic E. faecium, […]), the “AK-based Prestwick Library Screening Results, E. faecium (increase in extracellular AK activity)” value turned out to be 0.8. In the assay on E. cloacae (planktonic E. cloacae, […]), the “AK-based Prestwick Library Screening Results, E. cloacae (increase in extracellular AK activity)” value is on record as 1.2. The “AK-based Prestwick Library Screening Results, E. coli (increase in extracellular AK activity)” value with E. coli (planktonic E. coli, […]) is on record as 0.9.

As to `C[C@H]1CC[C@]2(NC1)O[C@H]1C[C@H]3[C@@H]4CC[C@H]5C[C@@H](O)CC[C@]5(C)[C@H]4CC[C@]3(C)[C@H]1[C@@H]2C` [Tomatidine], the fold induction at 50 µM worked out at 0.6 with K. pneumoniae (setting [3]); 0.5 in assay [1] (setting [4]); 0.7 in the assay on P. aeruginosa (setting [5]); 0.7 in assay [2] (setting [6]); 1.2 in the assay with E. faecium (setting [7]); 1 in the assay with E. cloacae (setting [8]). In addition, the fold induction at 50 µM with E. coli (setting [9]) was 0.7.
